{"source": "patent US11535597B2", "about": "“Photoreactive ligands and uses thereof” (The Scripps Research Institute, priority 2017, dated 2022)", "key": {"cathepsin B (CTSB)": {"molecular_target": "T1, cathepsin B (CTSB) (Homo sapiens, UniProt P07858)", "T1 construct": "endogenous in cells; host or cells: HEK293T", "test": "Mapping and competition of FFF probe-modified peptide on cathepsin B (CTSB)", "assay_type": "binding", "conditions": "HEK293T cells co-treated with 9 (200 μM)", "description": "(§1) Preparation and analysis was adapted from methods previously reported. In brief, for global mapping of fragment probe-modified peptides, separate 10 cm dishes of cells were treated with probes (200-250 μM) in 3.0 mL of DMEM (serum-free) and (if applicable) competitor ligands, proteomes harvested and subjected to click chemistry conditions with either light or heavy isotopically labeled biotin-TEV-azide (10 μL of 5 mM stocks in DMSO, final concentration=100 μM), TCEP, ligand and CuSO4 as detailed above. The samples were allowed to react for 1 h at which point the samples were centrifuged (16,000 g, 5 min, 4° C.). The resulting pellets were sonicated in ice-cold methanol (500 μL) and the resuspended light- and heavy-labeled samples were then combined and centrifuged (16,000 g, 5 min, 4° C.). The pellets were then solubilized in PBS containing 1.2% SDS (1 mL) with sonication and heating (5 min, 95° C.). Samples were transferred to falcon tubes containing DPBS (5 mL), to which a 100 μL of streptavidin-agarose beads slurry was added. […]\n(§2) The resulting probe-modified peptides were collected for MS analysis, which was performed as described above with differences in the salt bumps applied in the chromatographic gradients which in this case were 0%, 30%, 60%, 90% and 100% NH4OAc (500 μM). […] The isoTOP ratios for probe labeled peptides were quantified using the in-house software CIMAGE. […]"}, "[1]": {"tested_on": "proteins in HEK293T cells", "test": "MS-based mapping of FFF probe-modified peptides (isoTOP, sites of labeling)", "assay_type": "binding, human", "description": "(§3) Preparation and analysis was adapted from methods previously reported. In brief, for global mapping of fragment probe-modified peptides, separate 10 cm dishes of cells were treated with probes (200-250 μM) in 3.0 mL of DMEM (serum-free) and (if applicable) competitor ligands, proteomes harvested and subjected to click chemistry conditions with either light or heavy isotopically labeled biotin-TEV-azide (10 μL of 5 mM stocks in DMSO, final concentration=100 μM), TCEP, ligand and CuSO4 as detailed above. The samples were allowed to react for 1 h at which point the samples were centrifuged (16,000 g, 5 min, 4° C.). The resulting pellets were sonicated in ice-cold methanol (500 μL) and the resuspended light- and heavy-labeled samples were then combined and centrifuged (16,000 g, 5 min, 4° C.). The pellets were then solubilized in PBS containing 1.2% SDS (1 mL) with sonication and heating (5 min, 95° C.). Samples were transferred to falcon tubes containing DPBS (5 mL), to which a 100 μL of streptavidin-agarose beads slurry was added. After incubation, the beads (3 hr) were pelleted by centrifugation (1,400 g, 3 min) and were washed (2×10 mL PBS and 2×10 mL water). The beads were transferred to eppendorf tubes with 1 mL DPBS, centrifuged (1,400 g, 3 min), and resuspended in PBS containing 6 M urea. To this was added 10 mM DTT (25 μL of a 200 mM stock in water) and the beads were incubated at 65° C. for 15 mins. 20 mM iodoacetamide (25 μL of a 400 mM stock in water) was then added and allowed to react at 37° C. for 30 mins with shaking. The bead mixture was diluted with 900 μL PBS, pelleted by centrifugation (1,400 g, 3 min), and resuspended in 200 μL 2M urea (DPBS) containing trypsin and CaCl2 as described above. The beads were separated from the digest by centrifugation (1,000 g, 1 min), washed (2×1 mL PBS and 2×1 mL water) and then transferred to fresh eppendorfs with 1 mL water. The washed beads were washed once further in 150 μL TEV buffer (50 mM Tris, pH 8, 0.5 mM EDTA, 1 mM DTT) by centrifugation (1,400 g, 3 min) and the resuspended in 150 μL TEV buffer. 5 μL TEV protease (80 μM) was added and the reactions were rotated overnight at 29° C. The TEV digest was separated from the beads by centrifugation (1,400 g, 3 min) and the beads were washed once with water (100 μL). The samples were then acidified to a final concentration of 5% (v/v) formic acid and stored at −80° C. prior to analysis.\nThe resulting probe-modified peptides were collected for MS analysis, which was performed as described above with differences in the salt bumps applied in the chromatographic gradients which in this case were 0%, 30%, 60%, 90% and 100% NH4OAc (500 μM). The protein identification searches of the MS data were performed with the following changes applied to identify the peptides modified with the corresponding fragment probe and the cleaved TEV tag. All amino acids were considered as possible residues for modification. To facilitate the computational searches, sets of up to 3 amino acids were searched using ProLuCID and filtered with DTASelect as described above. […] The isoTOP ratios for probe labeled peptides were quantified using the in-house software CIMAGE.\nFor each protein in the site-of-labeling dataset, the UniProtKB accession number was used to map and collect relevant structures from the RCSB Protein Data Bank (PDB) fulfilling the following criteria: structures determined by X-ray crystallography, wild-type protein, Homo sapiens as the sole source organism. […] Fpocket 2.0 was used to detect potential binding pockets for the resultant structures with all parameters set at recommended default. Pockets with volume less than 500 Å^3 were removed from output prior to further analysis. Residues surrounding fpocket predicted binding pockets for each protein were collected to determine the number of residues overlapping with isoTOP peptides."}, "α-galactosidase (GLA)": {"molecular_target": "T2, α-galactosidase (GLA) (Homo sapiens, UniProt P06280)", "T2 construct": "endogenous in cells; host or cells: human cells (HEK293T; a subset of probes also in K562)", "T2 sequence (P06280 32-429)": "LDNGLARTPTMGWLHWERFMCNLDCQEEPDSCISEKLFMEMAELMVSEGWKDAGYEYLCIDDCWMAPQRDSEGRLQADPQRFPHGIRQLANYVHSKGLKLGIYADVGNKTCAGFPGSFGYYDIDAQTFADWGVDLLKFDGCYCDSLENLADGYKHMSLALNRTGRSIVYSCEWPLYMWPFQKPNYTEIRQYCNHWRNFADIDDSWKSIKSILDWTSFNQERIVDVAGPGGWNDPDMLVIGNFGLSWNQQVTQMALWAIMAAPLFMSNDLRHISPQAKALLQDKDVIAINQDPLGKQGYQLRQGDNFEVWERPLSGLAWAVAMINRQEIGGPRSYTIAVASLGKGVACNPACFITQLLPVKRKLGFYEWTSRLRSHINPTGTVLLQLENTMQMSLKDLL", "test": "Mapping of FFF probe-modified peptides on α-galactosidase (GLA)", "assay_type": "binding", "description": "as §3, §2"}, "PTGR2": {"molecular_target": "PTGR2 (Homo sapiens, UniProt Q8N8N7)", "sequence (Q8N8N7 whole entry)": "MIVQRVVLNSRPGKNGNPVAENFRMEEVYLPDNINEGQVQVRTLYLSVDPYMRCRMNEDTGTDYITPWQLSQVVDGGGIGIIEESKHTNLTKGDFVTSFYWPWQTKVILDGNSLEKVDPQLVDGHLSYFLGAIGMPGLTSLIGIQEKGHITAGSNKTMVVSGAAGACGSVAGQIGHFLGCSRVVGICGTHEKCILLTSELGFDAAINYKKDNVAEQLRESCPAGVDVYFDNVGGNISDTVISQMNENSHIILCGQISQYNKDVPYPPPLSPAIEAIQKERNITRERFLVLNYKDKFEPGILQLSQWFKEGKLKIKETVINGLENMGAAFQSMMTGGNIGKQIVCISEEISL", "test": "Mapping and competition of FFF 8-modified tryptic peptides on PTGR2", "assay_type": "binding", "conditions": "near the active site", "description": "as §1, §2"}}, "note": "Entries after “also recorded” stand apart in the source; their conditions may differ.", "data": [{"smiles": "CC(NC(=O)[C@H](Cc1ccccc1)NC(=O)OCc1ccccc1)C(=O)CF", "note": "(stereo partly shown) [Z-FA-FMK, reference compound]", "values": [{"measurement": "blockade of probe 9 interaction with CTSB", "setting": "cathepsin B (CTSB)", "result": "blocked"}]}, {"smiles": "C#CCCC1(CCC(=O)NCc2ccc3sccc3c2)N=N1", "note": "[probe 4, N-(Benzo[b]thiophen-5-ylmethyl)-3-(3-(but-3-yn-1-yl)-3H-diazirin-3-yl)propanamide]", "values": [{"measurement": "Labeled Peptide of HCCS Cytochrome c-type heme lyase", "setting": "[1]; Accession P53701, residues of probe-labeled peptide, family Enzymes", "result": "200-210"}, {"measurement": "Labeled Peptide", "setting": "[1]; HNRNPK Heterogeneous nuclear ribonucleoprotein K, residues of probe-modified peptide", "result": "423-433"}, {"measurement": "Labeled Peptide", "setting": "[1]; IDE Insulin-degrading enzyme, residues of probe-modified peptide", "result": "312-324"}, {"measurement": "Labeled Peptide", "setting": "[1]; NUP93 (Q8N1F7), residues of the probe-labeled peptide", "result": "539-545"}, {"measurement": "Labeled Peptide", "setting": "[1]; P07195 LDHB L-lactate", "result": "234-244"}, {"measurement": "Labeled Peptide", "setting": "[1]; P22830 FECH Fen-ochelatase, mitochondrial", "result": "254-272"}, {"measurement": "Labeled Peptide", "setting": "[1]; protein BCAS2 (O75934), residues of probe-labeled peptide", "result": "137-151"}, {"measurement": "Labeled Peptide", "setting": "[1]; protein CPT2 Carnitine O-palmitoyltransferase 2, mitochondrial (P23786), residues of probe-labeled peptide", "result": "478-495"}, {"measurement": "Labeled Peptide", "setting": "[1]; protein EMD Emerin (P50402), residues of probe-labeled peptide", "result": "212-221"}, {"measurement": "Labeled Peptide", "setting": "[1]; protein FECH Ferrochelatase, mitochondrial (P22830), residues of probe-labeled peptide", "result": "254-272"}, {"measurement": "Labeled Peptide", "setting": "[1]; protein FECH Ferrochelatase, mitochondrial, residues of probe-labeled peptide", "result": "254-272"}, {"measurement": "Labeled Peptide", "setting": "[1]; protein LDHB L-lactate dehydrogenase B chain, residues of the probe-labeled peptide", "result": "234-244"}, {"measurement": "Labeled Peptide", "setting": "[1]; protein P42166 TMPO Lamina-associated polypeptide 2, isoform alpha", "result": "621-637"}, {"measurement": "Labeled Peptide", "setting": "[1]; protein PGRMC2 Membrane-associated progesterone receptor component (O15173)", "result": "136-149"}, {"measurement": "Labeled Peptide", "setting": "[1]; protein PSMD11 26S proteasome non-ATPase regulatory subunit 11 (O00231)", "result": "298-304"}, {"measurement": "Labeled Peptide", "setting": "[1]; protein Q14166 TTLL12", "result": "254-287"}, {"measurement": "Labeled Peptide", "setting": "[1]; residues of probe-labeled peptide on TUBB6 Tubulin beta-6 chain, Accession # Q9BUF5", "result": "217-241"}, {"measurement": "Labeled Peptide of GLA Alpha-galactosidase A", "setting": "α-galactosidase (GLA); Accession P06280, residues of probe-labeled peptide, family Enzymes", "result": "68-82"}, {"measurement": "Labeled Peptide", "setting": "α-galactosidase (GLA); P06280 GLA Alpha-galactosidase A", "result": "68-82"}, {"measurement": "Labeled Peptide", "setting": "α-galactosidase (GLA); protein GLA Alpha-galactosidase A, residues of probe-labeled peptide", "result": "68-82"}]}, {"smiles": "C#CCCC1(CCC(=O)N2CCC(c3ccccc3)CC2)N=N1", "note": "[probe 8, 3-(3-(But-3-yn-1-yl)-3H-diazirin-3-yl)-1-(4-phenylpiperidin-1-yl)propan-1-one]", "values": [{"measurement": "probe-modified tryptic peptides in PTGR2", "setting": "PTGR2", "result": "aa 55-66; also recorded: aa 261-278"}, {"measurement": "Labeled Peptide of HNRNPA1 Heterogeneous nuclear ribonucleoprotein A1", "setting": "[1]; Accession P09651, residues of probe-labeled peptide, family Channels, Transporters, Receptors", "result": "233-265"}, {"measurement": "Labeled Peptide of HIST1H1C Histone H1.2", "setting": "[1]; Accession P16403, residues of probe-labeled peptide, family Transcription factors, Regulators", "result": "65-75"}, {"measurement": "Labeled Peptide", "setting": "[1]; MKI67 (P46013), residues of the probe-labeled peptide", "result": "648-659"}, {"measurement": "Labeled Peptide", "setting": "[1]; protein BAG6 (P46379), residues of probe-labeled peptide", "result": "332-344"}, {"measurement": "Labeled Peptide", "setting": "[1]; protein CCT8 T-complex protein 1 subunit theta (P50990), residues of probe-labeled peptide", "result": "441-450"}, {"measurement": "Labeled Peptide", "setting": "[1]; protein CDC37 Hsp90 co-chaperone Cdc37 (Q16543), residues of probe-labeled peptide", "result": "287-307"}, {"measurement": "Labeled Peptide", "setting": "[1]; protein DHX9 ATP-dependent RNA helicase A (Q08211), residues of probe-labeled peptide", "result": "121-141"}, {"measurement": "Labeled Peptide", "setting": "[1]; protein Q14683 SMC1A Structureal maintenance of chromosomes protein 1A", "result": "1070-1086"}, {"measurement": "Labeled Peptide", "setting": "[1]; residues of probe-labeled peptide on UBAP2L Ubiquitin-associated protein 2-like, Accession # Q14157", "result": "239-257"}]}]}
